Here are results for seven compounds from PubChem BioAssay (NCI).

Some test systems named below: MALME-3M melanoma; HOP-62 NSCLC; HCT-116 colon; SN12C renal; M14 melanoma; A498 renal; DU-145 prostate; MDA-N; SNB-75 CNS; SK-OV-3 ovarian; SK-MEL-2 melanoma; MDA-MB-435; HCC-2998 colon; SW-620 colon; HL-60(TB) leukemia; OVCAR-4 ovarian; TK-10 renal; NCI-H460 lung; CCRF-CEM leukemia.
Test in all cases: growth of human tumour cells (NCI), 48 h

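Tested at 5 concentrations; 48 h exposure; 96-well plates; endpoints linearly interpolated, else capped at highest concentration. At the TGI there is no net growth.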

`CSc1ccc(C2C(Cl)C(=O)N2NC(=O)c2c(Cl)c(Cl)c(Cl)c(Cl)c2-c2nc3ccccc3[nH]2)cc1` (stereo not given): the TGI with MALME-3M melanoma is 39.5 µM; with HOP-62 NSCLC, above 100 µM; in the experiment with HCT-116 colon, 33.7 µM; in the experiment with SN12C renal, 37 µM; with M14 melanoma, 56.7 µM; in the experiment with A498 renal it was 72.1 µM. Moreover, the TGI in the experiment with DU-145 prostate was 31.3 µM; in the experiment with MDA-N, 87.9 µM; with SNB-75 CNS, 35.4 µM; with SK-OV-3 ovarian, 93.4 µM; with SK-MEL-2 melanoma, above 100 µM; with MDA-MB-435 it was 37 µM. The TGI with HCC-2998 colon is 37 µM; in the experiment on SW-620 colon, above 100 µM; in the experiment on HL-60(TB) leukemia, 55.1 µM.
Regarding `CCCCn1c(C)c(C(=O)OCC)c2cc(OCc3ccc(C(=O)Nn4c(C)ccc4C)cc3)c(Br)cc21`, the TGI with MALME-3M melanoma, in the experiment on HOP-62 NSCLC, with HCT-116 colon, with SN12C renal, with OVCAR-4 ovarian and in the experiment on M14 melanoma was above 100 µM in each case. Also, the TGI in the experiment on A498 renal, in the experiment with TK-10 renal, in the experiment with DU-145 prostate, with MDA-N, in the experiment on SNB-75 CNS and with SK-OV-3 ovarian was above 100 µM in each case. Besides, the TGI with SK-MEL-2 melanoma, in the experiment on NCI-H460 lung, in the experiment on CCRF-CEM leukemia, in the experiment on MDA-MB-435, with HCC-2998 colon and with SW-620 colon was above 100 µM throughout. For the same compound, the TGI with HL-60(TB) leukemia was above 100 µM.
With `CO/N=C(\C(=O)Nc1cncs1)c1csc(NC(c2ccccc2)(c2ccccc2)c2ccccc2)n1`, the TGI with MALME-3M melanoma, in the experiment with HOP-62 NSCLC, in the experiment on HCT-116 colon, in the experiment with SN12C renal, in the experiment on OVCAR-4 ovarian and in the experiment with M14 melanoma was above 10 µM throughout. The TGI in the experiment with A498 renal, in the experiment on TK-10 renal, with DU-145 prostate, in the experiment with MDA-N, in the experiment on SNB-75 CNS and in the experiment on SK-OV-3 ovarian was above 10 µM throughout. Besides, the TGI with SK-MEL-2 melanoma, in the experiment with NCI-H460 lung, with CCRF-CEM leukemia, in the experiment on HCC-2998 colon, in the experiment on SW-620 colon and with HL-60(TB) leukemia was above 10 µM each time.
For `O=C1NC(Nc2cccc(Cl)c2)=N/C1=C\c1ccc(Cl)c(Cl)c1`, the TGI in the experiment on MALME-3M melanoma stood at 27.8 µM; with HOP-62 NSCLC, 23.4 µM; in the experiment on HCT-116 colon, 14.2 µM; in the experiment with SN12C renal, 5.57 µM; with OVCAR-4 ovarian, 5.49 µM; in the experiment with M14 melanoma, 14.9 µM. Also, the TGI is 16.3 µM with A498 renal; 22.4 µM in the experiment on TK-10 renal; 20.6 µM with DU-145 prostate; 15.8 µM with MDA-N; 26.6 µM in the experiment on SNB-75 CNS; 27.5 µM in the experiment on SK-OV-3 ovarian. Also, the TGI stood at 6.77 µM with SK-MEL-2 melanoma; 5.67 µM in the experiment on NCI-H460 lung; 35.3 µM with CCRF-CEM leukemia; 17.6 µM in the experiment on MDA-MB-435; 5.27 µM in the experiment with HCC-2998 colon; 19.6 µM in the experiment on SW-620 colon. Also, in the experiment on HL-60(TB) leukemia, the TGI was 15.1 µM.
For the compound `Cc1ccccc1Nc1cn(COCc2ccccc2)c(=O)[nH]c1=O`, the TGI in the experiment with HOP-62 NSCLC, in the experiment on HCT-116 colon, in the experiment with SN12C renal, in the experiment with OVCAR-4 ovarian, with M14 melanoma and in the experiment on A498 renal was above 100 µM in each case. Besides, the TGI in the experiment on DU-145 prostate, in the experiment with MDA-N, in the experiment with NCI-H460 lung, with CCRF-CEM leukemia, with MDA-MB-435 and with HCC-2998 colon was above 100 µM throughout. Besides, the TGI with SW-620 colon and in the experiment on HL-60(TB) leukemia was above 100 µM throughout.
For `C/C(=N\NC(=S)N1CC2CCC(CC2)C1)c1ccncn1`, the TGI in the experiment with MALME-3M melanoma was determined as 1.42 µM; in the experiment with HOP-62 NSCLC, 12.1 µM; in the experiment on HCT-116 colon it was 1.5 µM; in the experiment on SN12C renal it was 5.16 µM; in the experiment on OVCAR-4 ovarian, 9.92 µM; in the experiment on M14 melanoma, 2.36 µM. The TGI amounted to 2.84 µM with A498 renal; 2.56 µM in the experiment with TK-10 renal; 6.26 µM in the experiment on DU-145 prostate; 15.4 µM with MDA-N; 3.4 µM in the experiment on SNB-75 CNS; 1.6 µM in the experiment on SK-OV-3 ovarian. Also, the TGI in the experiment on SK-MEL-2 melanoma was found to be 5.39 µM; with NCI-H460 lung it was 1.65 µM; in the experiment on MDA-MB-435, 5.9 µM; with SW-620 colon, 18.4 µM; with HL-60(TB) leukemia it was 1.44 µM.
In the case of `O=c1[nH]nc(-c2cccc(Br)c2)[nH]1`, the TGI in the experiment on MALME-3M melanoma, with HOP-62 NSCLC, in the experiment on HCT-116 colon, with SN12C renal, with OVCAR-4 ovarian and in the experiment on M14 melanoma was above 100 µM throughout. In addition, the TGI in the experiment on A498 renal, with TK-10 renal, in the experiment on DU-145 prostate, in the experiment on MDA-N, in the experiment with SNB-75 CNS and in the experiment with SK-MEL-2 melanoma was above 100 µM throughout. The TGI in the experiment on NCI-H460 lung, with CCRF-CEM leukemia, in the experiment with MDA-MB-435, in the experiment on HCC-2998 colon, in the experiment on SW-620 colon and with HL-60(TB) leukemia was above 100 µM in each case.
